Test results published in patent US20250034159A1, “INHIBITORS OF EPIDERMAL GROWTH FACTOR RECEPTOR” (ORIC Pharmaceuticals, Inc., priority 2021, published 2025).
Like-named read-outs stand apart in the source and are kept apart here.

Columns and labels:
[1] = target: recombinant human EGFR exon 19 deletion/C797S double mutant protein (Homo sapiens (Human), UniProt P00533, C797S/DEL746-750); experiment: Biological Activity Assay C: biochemical assay against EGFR exon 19 deletion/C797S protein (EGFR d19/CS)
Summary of the method: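 IC50 values were fitted with a 4-parameter model to reaction slopes taken from 90 kinetic reads spaced 120 s apart. The Phosphosens sensor/ATP working solution was 40 uM/4 mM, and compound was dosed as 16-point dilutions at 2.5% final DMSO.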

Ba/F3_EGFR WT cells = experiment: Biological Activity Assay D: BaF3 cell proliferation assay, EGFR wild-type (BaF3 WT); format: cell-based; conditions: Ba/F3 EGFR, read-out: BaF3 WT IC50
BaF3_EGFR LR/CS cells = experiment: Biological Activity Assay D: BaF3 cell proliferation assay, EGFR L858R/C797S mutant (BaF3 LR/CS); format: cell-based; conditions: Ba/F3 EGFR, read-out: BaF3 LR/CS IC50
BaF3_EGFR d19/CS cells = experiment: Biological Activity Assay D: BaF3 cell proliferation assay, EGFR exon 19 deletion/C797S (BaF3 d19/CS); format: cell-based; conditions: Ba/F3 EGFR, read-out: BaF3 d19/CS IC50
[2] = Ba/F3_EGFR WT cells, ~72 hours, CellTiter-Glo
[3] = BaF3_EGFR LR/CS cells, ~72 hours, CellTiter-Glo
[4] = BaF3_EGFR d19/CS cells, ~72 hours, CellTiter-Glo

Sequence of recombinant human EGFR exon 19 deletion/C797S double mutant protein (P00533 other isoform, or with tags, fused parts or gaps C797S/del 1-668/del 746-750 limits assumed): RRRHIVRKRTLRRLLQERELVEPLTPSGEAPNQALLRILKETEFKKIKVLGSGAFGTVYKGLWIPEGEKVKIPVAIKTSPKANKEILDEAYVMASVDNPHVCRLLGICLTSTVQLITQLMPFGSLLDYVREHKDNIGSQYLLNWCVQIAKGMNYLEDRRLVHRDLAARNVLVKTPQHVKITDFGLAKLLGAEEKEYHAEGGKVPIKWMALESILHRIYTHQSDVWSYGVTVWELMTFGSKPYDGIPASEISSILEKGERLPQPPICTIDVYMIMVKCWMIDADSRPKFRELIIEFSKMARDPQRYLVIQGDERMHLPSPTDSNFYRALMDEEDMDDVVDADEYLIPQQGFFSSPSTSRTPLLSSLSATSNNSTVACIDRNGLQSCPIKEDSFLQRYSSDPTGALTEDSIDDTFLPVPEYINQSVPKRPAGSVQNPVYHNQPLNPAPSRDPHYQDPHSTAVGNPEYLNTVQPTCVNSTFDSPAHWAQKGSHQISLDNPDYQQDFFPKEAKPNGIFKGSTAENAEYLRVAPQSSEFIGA

| Structure (SMILES) | IC50 [1] [nM] | IC50 (Ba/F3_EGFR WT cells; [2]) [nM] | IC50 (BaF3_EGFR LR/CS cells; [3]) [nM] | IC50 (BaF3_EGFR d19/CS cells; [4]) [nM] | IC50 (Ba/F3_EGFR WT cells; 72 h) [nM] | IC50 (BaF3_EGFR LR/CS cells; 72 h) [nM] | IC50 (BaF3_EGFR d19/CS cells; 72 h) [nM] |
| --- | --- | --- | --- | --- | --- | --- | --- |
| CCn1cc(-c2ncnc3oc(-c4ccccc4)cc23)c(-c2ccc(F)cc2)n1 [Example 179, 4-[1-ethyl-3-(4-fluorophenyl)-1H-pyrazol-4-yl]-6-phenylfuro[2,3-d]pyrimidine] | 0.39 |  |  |  | 2200 | 17.2 | 41 |
| Fc1ccc(-c2nn(CC3CCC(F)(F)CC3)cc2-c2ncnc3oc(-c4ccccc4)cc23)cc1 [Example 204, 4-{1-[(4,4-difluorocyclohexyl)methyl]-3-(4-fluorophenyl)-1H-pyrazol-4-yl}-6-phenylfuro[2,3-d]pyrimidine] | 10.2 | 8130 | 288 | 1220 |  |  |  |
| C[C@@H]1OCC[C@H]1n1cc(-c2ncnc3oc(-c4ccccc4)cc23)c(-c2ccc(F)cc2)n1 (single isomer, unassigned) [Example 213] | 0.51 | 2610 | 80.9 | 168 |  |  |  |
| Fc1ccc(-c2nn([C@H]3CCOC[C@@H]3F)cc2-c2ncnc3oc(-c4ccccc4)cc23)cc1 (racemic) [Example 151, 4-[1-(3-fluorooxan-4-yl)-3-(4-fluorophenyl)-1H-pyrazol-4-yl]-6-phenylfuro[2,3-d]pyrimidine] | 1.45 | 1870 | 16.1 | 68.1 |  |  |  |
| CC1(C)C[C@H](n2cc(-c3ncnc4oc(-c5ccccc5)cc34)c(-c3ccc(F)cc3)n2)CCO1 (single isomer, unassigned) [Example 225] | 4.88 | 18900 | 502 | 886 |  |  |  |
| Cc1ccc(-c2cc3c(-c4cn(C5CS(=O)(=O)C5)nc4-c4ccc(F)cc4)ncnc3o2)c(C)n1 [Example 240, 3-{4-[6-(2,6-dimethylpyridin-3-yl)furo[2,3-d]pyrimidin-4-yl]-3-(4-fluorophenyl)-1H-pyrazol-1-yl}-16-thietane-1,1-dione] | 0.34 | 7560 | 57.9 | 66.4 |  |  |  |
| O=S1(=O)CC(n2cc(-c3ncnc4oc(-c5ccccc5C(F)(F)F)cc34)c(-c3ccc(F)cc3)n2)C1 [Example 182, 3-[3-(4-fluorophenyl)-4-{6-[2-(trifluoromethyl)phenyl]furo[2,3-d]pyrimidin-4-yl}-1H-pyrazol-1-yl]-1λ6-thietane-1,1-dione] | 1.65 | > 20000 | 444 | 392 |  |  |  |

Further molecules by falling IC50 [1], results first:

| IC50 [1] [nM] | IC50 (Ba/F3_EGFR WT cells; [2]) [nM] | IC50 (BaF3_EGFR LR/CS cells; [3]) [nM] | IC50 (BaF3_EGFR d19/CS cells; [4]) [nM] | Structure (SMILES) | IC50 (Ba/F3_EGFR WT cells; 72 h) [nM] | IC50 (BaF3_EGFR LR/CS cells; 72 h) [nM] | IC50 (BaF3_EGFR d19/CS cells; 72 h) [nM] |
| --- | --- | --- | --- | --- | --- | --- | --- |
| 0.332 | 1500 | 74.4 | 40 | CC(C)(O)Cn1cc(-c2ncnc3oc(-c4ccc(F)cn4)cc23)c(-c2ccc(F)cc2)n1 [Example 277, 1-{3-(4-fluorophenyl)-4-[6-(5-fluoropyridin-2-yl)furo[2,3-d]pyrimidin-4-yl]-1H-pyrazol-1-yl}-2-methylpropan-2-ol] |  |  |  |
| 0.252 | 1600 | 20.6 | 14.1 | COc1ncccc1-c1cc2c(-c3cn(CC(C)(C)O)nc3-c3ccc(F)cc3)ncnc2o1 [Example 271, 1-{3-(4-fluorophenyl)-4-[6-(2-methoxypyridin-3-yl)furo[2,3-d]pyrimidin-4-yl]-1H-pyrazol-1-yl}-2-methylpropan-2-ol] |  |  |  |
| 0.16 | 924 | 11.2 | 17.1 | Cc1nc(-c2cc3c(-c4cn(C5CS(=O)(=O)C5)nc4-c4ccc(F)cc4)ncnc3o2)cs1 [Example 236, 3-{3-(4-fluorophenyl)-4-[6-(2-methyl-1,3-thiazol-4-yl)furo[2,3-d]pyrimidin-4-yl]-1H-pyrazol-1-yl}-16-thietane-1,1-dione] |  |  |  |
| 0.094 | 135 | 2.13 | 2.5 | Cn1cnc(-c2cc3c(-c4cn(CC(F)(F)CO)nc4-c4ccc(F)cc4)ncnc3o2)c1 [Example 266, 2,2-difluoro-3-{3-(4-fluorophenyl)-4-[6-(1-methyl-1H-imidazol-4-yl)furo[2,3-d]pyrimidin-4-yl]-1H-pyrazol-1-yl}propan-1-ol] |  |  |  |
